Key:
Candida strains = assay: Antifungal screening; format: cell-based; details: several Candida strains / fungal screens
ESKAPE pathogens = assay: Antibacterial screening; format: cell-based; details: ESKAPE pathogens / bacterial screens
[1] = test system: recombinant RSV encoding Renilla luciferase (rA2-Rluc); assay: RSV antiviral assay (Renilla luciferase reporter RSV in A549 cells); format: cell-based, respiratory syncytial virus; details: for activity against RSV (in words): inhibition of RSV gene expression / viral transcription; for IC50: rA2-Rluc in A549 cells, 24 h, luciferase activity, read-out: IC50 against RSV
Protocol: A549 (CCL-185, ATCC) cells were seeded at 1.6×10^4 cells in 100 μl of 5% FBS/1× penicillin-streptomycin/F12 medium per well in 96-well uClear® black plates with clear bottom (Greiner 655090). Cells were infected with 400 PFU/well of a recombinant RSV encoding Renilla luciferase as an additional transcription unit (rA2-Rluc^22) in total volume of 50 μL/well and allowed to adsorb for 1 h. Purified compounds were serially diluted two-fold in triplicate and 50 μL/well of the diluted extracts were added to the infected cells. After further incubation at 37° C. and 5% CO2 for 24 h, the supernatants were removed and cells were lysed using Renilla lysis buffer (Promega). Luciferase activity was measured with the Renilla Luciferase reagent (Promega) and BioTek Synergy Mx microplate luminometer using Gen5 version 2.00.18 software. RSV antiviral effect for test samples was determined by normalizing to DMSO-treated control samples and multiplying by 100 to obtain percent of control. Statistical analysis was performed using GraphPad Prism software version 9.4.1.

HIV gene expression = details: cited from earlier work
[2] = test system: panel of tumor cell lines; details: cited from earlier work
MRSA = details: cited from earlier work

Compound | antifungal activity (Candida strains) | antibacterial activity (ESKAPE pathogens) | activity against RSV (in words) [1] | other results
CC(=O)OC1CC2(C)C(O)C(C3CC(=O)C(C)=CC3O)=CCC2C2(C)CCCC(C)(C)C12 (stereo not shown) [Compound 3, Suberitenone F] | inactive | inactive | active | 
CC(=O)OC1CC2(C)C=C3C4CC(=O)C(C)(CC4O)C3CC2C2(C)CCCC(C)(C)C12 (stereo not shown) [Compound 1, Neosuberitenone A] |  |  |  | viral inhibitory effects at 25 μg/mL ([1]; 25 μg/mL): did not show any viral inhibitory effects
CC(=O)OC1CC2(C)C=C(C3CC(=O)C(C)=CC3O)CCC2C2(C)CCCC(C)(C)C12 (stereo not shown) [Compound 10, suberitenone A] | inactive | inactive | active | IC50 [1]: 7.9 µM
anvilone A |  |  |  | HIV gene expression (HIV gene expression): turned on HIV gene expression
19-episuberitenone B |  |  |  | cytotoxicity against a panel of tumor cell lines [2]: weak cytotoxicity
CC(=O)OC1CC2(C)CC(O)(C3CC(=O)C(C)=CC3O)CCC2C2(C)CCCC(C)(C)C12 (stereo not shown) [Compound 11, suberitenone B] | inactive | inactive | active | IC50 [1]: 3.5 µM
isosuberitenone B |  |  |  | cytotoxicity against a panel of tumor cell lines [2]: weak cytotoxicity
oxaspirosuberitenone |  |  |  | antibacterial activity against MRSA (MRSA): mild antibacterial activity
